In the experiment the target is T1, DmCry (Drosophila melanogaster, UniProt O77059).
T1 construct: gene cry
Kind of experiment: UV-visible absorption spectroscopy of protein-bound flavin, photoreduction and dark reoxidation. As to conditions: co-purified cofactor; 50 mM phosphate pH 7.5, 10 mM beta-mercaptoethanol, 21 °C; blue light. Format: binding.

Structures are written as SMILES.

We go through one compound from paper PMC5351967, “Blue-light induced accumulation of reactive oxygen species is a consequence of the Drosophila cryptochrome photocycle” (PLoS ONE, 2017).

T1 sequence (O77059 whole entry): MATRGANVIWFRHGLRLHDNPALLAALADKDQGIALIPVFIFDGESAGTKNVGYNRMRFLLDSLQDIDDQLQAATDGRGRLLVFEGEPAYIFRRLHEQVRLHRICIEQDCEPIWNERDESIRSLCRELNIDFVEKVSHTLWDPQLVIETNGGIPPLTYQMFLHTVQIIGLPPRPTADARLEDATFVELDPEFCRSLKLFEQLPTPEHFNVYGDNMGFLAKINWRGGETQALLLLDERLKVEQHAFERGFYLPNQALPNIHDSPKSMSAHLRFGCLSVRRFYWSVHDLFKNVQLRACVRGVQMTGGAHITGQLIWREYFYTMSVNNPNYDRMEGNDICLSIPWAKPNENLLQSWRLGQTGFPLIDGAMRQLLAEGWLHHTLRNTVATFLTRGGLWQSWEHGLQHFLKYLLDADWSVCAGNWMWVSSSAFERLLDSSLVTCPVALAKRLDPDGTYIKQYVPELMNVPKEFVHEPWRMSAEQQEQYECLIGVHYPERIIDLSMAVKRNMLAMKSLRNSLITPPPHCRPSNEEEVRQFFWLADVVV

As to `Cc1cc2nc3c(=O)[nH]c(=O)nc-3n(C[C@H](O)[C@H](O)[C@H](O)COP(=O)(O)OP(=O)(O)OC[C@H]3O[C@@H](n4cnc5c(N)ncnc54)[C@H](O)[C@@H]3O)c2cc1C` [FAD], the “UV-visible absorption spectroscopy of protein-bound flavin, photoreduction and d” value is “Flavin reduction to the anionic radical (FAD^•-) redox form could then be observed”.
